Read-outs that look alike come from different tables or passages of the source.

Two compounds from paper PMC12401175, “Construction of hyperthermostable D‐allulose 3‐epimerase from Arthrobacter globiformis M30 using the sequence information from Arthrobacter psychrolactophilus” (FEBS Open Bio, 2025) can be followed below.

Assay [1] deals with T1, AgDAE (Arthrobacter globiformis, UniProt A0A1L7NQ96).
T1 sequence (A0A1L7NQ96 1-289): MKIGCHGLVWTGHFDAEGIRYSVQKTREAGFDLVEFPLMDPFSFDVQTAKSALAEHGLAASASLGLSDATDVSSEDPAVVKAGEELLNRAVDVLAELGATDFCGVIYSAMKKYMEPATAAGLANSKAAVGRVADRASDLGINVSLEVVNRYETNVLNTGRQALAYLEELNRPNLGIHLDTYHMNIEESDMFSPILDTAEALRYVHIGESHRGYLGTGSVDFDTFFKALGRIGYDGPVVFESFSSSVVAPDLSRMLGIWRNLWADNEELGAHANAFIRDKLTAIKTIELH
Type of assay: biochemical. Conditions: 50 °C, 50 mM sodium phosphate pH 8.0, 2 mM MgSO4; read-out: Allulose → Fructose / K m.

Assay [2] concerns the target T1, AgDAE. Type of assay: biochemical. Particulars: 50 °C, 50 mM sodium phosphate pH 8.0, 2 mM MgSO4; read-out: Fructose → Allulose / K m.

For `OCC1(O)OC[C@@H](O)[C@@H](O)[C@H]1O` (stereo partly drawn) [D-allulose], the Km in assay [1] was 11.7 ± 0.7 mM. Take `OCC1(O)OC[C@@H](O)[C@@H](O)[C@@H]1O` (stereo partly drawn) [D-fructose]: the Km in assay [2] came out at 21.1 ± 5.6 mM.
